What was measured:
Assay type in all cases: in vivo
cat fleas [1] = assay: whole plant or invertebrate; settings: 1 ppm in bovine serum sucked through Parafilm at 37° C., dead fleas after 48 hours, 20 fleas per group, corrected by control group
Procedure: (§1) A test container wherein the living space of fleas was isolated from bovine serum by use of Parafilm™ (obtainable from Aldrich Chemical Co. Ltd.), which is usually used as an artificial skin, was prepared. A compound to be tested was added to the bovine serum in an amount sufficient for its concentration to be 1 ppm, and the fleas were allowed to suck the serum sample through the Parafilm™ at 37° C. Each group consisted of 20 fleas. […] By counting the dead fleas in a control group without a test compound, the mortality was corrected.

cat fleas [2] = assay: Test on insecticidal effect against cat fleas (Test Example 12, serum feeding through Parafilm); settings: 1 ppm in bovine serum, 37° C., after 48 hours, corrected by control group
Procedure: as §1

two-spotted spider mites = assay: Test on miticidal effect against two-spotted spider mites, cowpea leaf dip (Test Example 9); settings: for The death rate of mites (%): cowpea leaf dip, 2 days after treatment; for Death rate of hatchlings (%) / Death rate of mite eggs (%): 7 days after treatment; for Death rate of mite eggs (%): unhatched eggs; for The egg of two-spotted spider mite (7 days after) dead: number of dead eggs of total 20
Procedure: The remainder of the test compound solution was removed and the treated leaf was allowed to stand in a Petri dish containing a sponge covered with a filter paper soaked in water. After the test compound solution on the leaf had dried, eggs of the mites were marked. The leaf was then allowed to stand at 25° C. on the Petri dish without a lid. Two days after treatment with the test compound, the death rate of mites (expressed as a percentage of the total number of mites) was determined. Seven to ten days after the treatment, the “death rate” of the mite eggs (expressed as the percentage of the total number of mite eggs which were unhatched) and the death rate of the hatchlings (expressed as the percentage of the total number of hatchlings which were killed) was estimated. The test was repeated at different concentrations of the test compound. “Untreated” in this test means the control test in which water was used instead of the test compound solution.

Compound: CCC1OC2(CCC1C)CC1CC(CC=C(C)C(OC(=O)C3(c4ccc(NC(=O)CC#N)cc4)CCCC3)C(C)C=CC=C3COC4C(O)C(C)=CC(C(=O)O1)C34O)O2 (stereo not drawn) [Example 3, 13-[1-(4-Cyanoacetylaminophenyl)cyclopentanecarbonyloxy]-5-hydroxymilbemycin A4]
- Mortality (%) (cat fleas [1]): 81.4%

Compound: CCC1OC2(CCC1C)CC1CC(CC=C(C)C(OC(=O)C3(c4ccc(N)cc4)CCCC3)C(C)C=CC=C3COC4C(O)C(C)=CC(C(=O)O1)C34O)O2 (stereo not drawn) [Example 1(b), 13-[1-(4-Aminophenyl)cyclopentanecarbonyloxy]-5-hydroxymilbemycin A4]
- Mortality (%) (cat fleas [1]): 95.0%

Compound: CCC1OC2(CCC1C)CC1CC(CC=C(C)C(OC(=O)C3(c4ccc(NC(=O)CO)cc4)CCCC3)C(C)C=CC=C3COC4C(O)C(C)=CC(C(=O)O1)C34O)O2 (stereo not drawn) [Example 5, 13-[1-(4-Hydroxyacetylaminophenyl)cyclopentanecarbonyloxy]-5-hydroxy-milbemycin A4]
- Mortality (%) (cat fleas [1]): 74.4%

Compound: CCC1OC2(CCC1C)CC1CC(CC=C(C)C(OC(=O)C3(c4ccc(NS(C)(=O)=O)cc4)CCCC3)C(C)C=CC=C3COC4C(O)C(C)=CC(C(=O)O1)C34O)O2 (stereo not drawn) [Example 4, 13-[1-(4-Methanesulfonylaminophenyl)cyclopentanecarbonyloxy]-5-hydroxy-milbemycin A4]
- Mortality (%) (cat fleas [1]): 100.0%

Compound: COCC(=O)Nc1ccc(C2(C(=O)OC3C(C)=CCC4CC(CC5(CCC(C)C(C)O5)O4)OC(=O)C4C=C(C)C(O)C5OCC(=CC=CC3C)C45O)CCCC2)cc1 (stereo not drawn) [Example 8, 13-[1-(4-Methoxyacetylaminophenyl)cyclopentanecarbonyloxy]-5-hydroxy-milbemycin A3]
- Mortality (%) (cat fleas [1]): 87.6%

Compound: CCC1OC2(CCC1C)CC1CC(CC=C(C)C(OC(=O)C3(c4ccc(NC(=O)C(F)(F)F)cc4)CCC3)C(C)C=CC=C3COC4C(O)C(C)=CC(C(=O)O1)C34O)O2 (stereo not drawn) [Example 18, 13-[1-(4-Trifluoroacetylaminophenyl)cyclobutanecarbonyloxy]-5-hydroxy-milbemycin A4]
- Mortality (%) (cat fleas [2]): 91.5%

Compound: CCC1OC2(CCC1C)CC1CC(CC=C(C)C(OC(=O)C3(c4ccc(NC(=O)COC)cc4)CCC3)C(C)C=CC=C3COC4C(O)C(C)=CC(C(=O)O1)C34O)O2 (stereo not drawn) [Example 15, 13-[1-(4-Methoxyacetylaminophenyl)cyclobutanecarbonyloxy]-5-hydroxy-milbemycin A4]
- Mortality (%) (cat fleas [2]): 100%

Compound: CCC1OC2(CCC1C)CC1CC(CC=C(C)C(OC(=O)C3(c4ccc(NC(C)=O)cc4)CCC3)C(C)C=CC=C3COC4C(O)C(C)=CC(C(=O)O1)C34O)O2 (stereo not drawn) [Example 16, 13-[1-(4-Acetylaminophenyl)cyclobutanecarbonyloxy]-5-hydroxymilbemycin A4]
- Mortality (%) (cat fleas [2]): 92.9%

Compound: CC[C@H]1O[C@]2(CC[C@@H]1C)C[C@@H]1C[C@@H](C/C=C(\C)[C@H](OC(=O)C3(c4ccccc4)CCCC3)[C@@H](C)/C=C/C=C3\CO[C@@H]4[C@H](O)C(C)=C[C@@H](C(=O)O1)[C@]34O)O2 [Comparative Compound A, reference compound]
- mortality at 1 ppm (cat fleas [1]; Ctenocephalides felis): 2.4%
- mortality at 1 ppm (cat fleas [2]; Ctenocephalides felis): 2.4%

Compound: CCC1OC2(CCC1C)CC1CC(CC=C(C)C(OC(=O)C3(c4ccc(NS(C)(=O)=O)cc4)CCC3)C(C)C=CC=C3COC4C(O)C(C)=CC(C(=O)O1)C34O)O2 (stereo not drawn) [Example 17, 13-[1-(4-Methanesulfonylaminophenyl)cyclobutanecarbonyloxy]-5-hydroxy-milbemycin A4]
- Mortality (%) (cat fleas [2]): 94.9%

Compound: CCC1OC2(CCC1C)CC1CC(CC=C(C)C(OC(=O)C3(c4ccc(NC(=O)CN(C)C(C)=O)cc4)CCCC3)C(C)C=CC=C3COC4C(O)C(C)=CC(C(=O)O1)C34O)O2 (stereo not drawn) [Example 6, 13-{1-[4-(N-Acetyl-N-methylglycylamino)phenyl]cyclopentanecarbonyloxy}-5-hydroxymilbemycin A4]
- Mortality (%) (cat fleas [1]): 79.5%

Compound: CCC1OC2(CCC1C)CC1CC(CC=C(C)C(OC(=O)C3(c4ccc(NC(C)=O)cc4)CCCC3)C(C)C=CC=C3COC4C(O)C(C)=CC(C(=O)O1)C34O)O2 (stereo not drawn) [Example 2, 13-[1-(4-Acetylaminophenyl)cyclopentanecarbonyloxy]-5-hydroxymilbemycin A4]
- Mortality (%) (cat fleas [1]): 95.0%

Compound: C#CCCC(=O)Nc1ccc(C2(C(=O)OC3C(C)=CCC4CC(CC5(CCC(C)C(CC)O5)O4)OC(=O)C4C=C(C)C(O)C5OCC(=CC=CC3C)C45O)CCC2)cc1 (stereo not drawn) [Example 19, 13-[1-(4-Pentynoylaminophenyl)cyclobutanecarbonyloxy]-5-hydroxymilbemycin A4]
- Mortality (%) (cat fleas [2]): 90.7%

Compound: CC[C@H]1O[C@]2(CC[C@@H]1C)C[C@@H]1C[C@@H](C/C=C(\C)[C@H](OC(=O)C3(c4ccc(NC(=O)COC)cc4)CCCC3)[C@@H](C)/C=C/C=C3\CO[C@@H]4[C@H](O)C(C)=C[C@@H](C(=O)O1)[C@]34O)O2 [Test Compound Solution]
- The death rate of mites (%) (two-spotted spider mites; 0.1 ppm): 98.5%
- two-spotted spider mite (2 days after) dead (two-spotted spider mites; 0.1 ppm, number of dead mites of total 65): 64
- two-spotted spider mite (2 days after) agony (two-spotted spider mites; 0.1 ppm, number of mites in agony of total 65): 1
- Death rate of hatchlings (%) (two-spotted spider mites; 1 ppm): 30%
- Death rate of mite eggs (%) (two-spotted spider mites; 1 ppm): 0%
- The death rate of mites (%) (two-spotted spider mites; 1 ppm): 100%
- The egg of two-spotted spider mite (7 days after) dead (two-spotted spider mites; 1 ppm): 0
- two-spotted spider mite (2 days after) dead (two-spotted spider mites; 1 ppm, number of dead mites of total 55): 55
- Death rate of hatchlings (%) (two-spotted spider mites; 10 ppm): 100%
- Death rate of mite eggs (%) (two-spotted spider mites; 10 ppm): 25%
- The death rate of mites (%) (two-spotted spider mites; 10 ppm): 100%
- The egg of two-spotted spider mite (7 days after) dead (two-spotted spider mites; 10 ppm): 5
- two-spotted spider mite (2 days after) dead (two-spotted spider mites; 10 ppm, number of dead mites of total 39): 39
- Death rate of hatchlings (%) (two-spotted spider mites; 100 ppm): 100%
- Death rate of mite eggs (%) (two-spotted spider mites; 100 ppm): 90%
- The death rate of mites (%) (two-spotted spider mites; 100 ppm): 100%
- The egg of two-spotted spider mite (7 days after) dead (two-spotted spider mites; 100 ppm): 18
- two-spotted spider mite (2 days after) dead (two-spotted spider mites; 100 ppm, number of dead mites of total 48): 48

Compound: CC1=CC2C(=O)OC3CC(CC=C(C)C(OC(=O)C4(c5ccc(NS(C)(=O)=O)cc5)CCCC4)C(C)C=CC=C4COC(C1O)C42O)OC1(CCC(C)C(C)O1)C3 (stereo not drawn) [Example 9, 13-[1-(4-Methanesulfonylaminophenyl)cyclopentanecarbonyloxy]-5-hydroxy-milbemycin A3]
- Mortality (%) (cat fleas [1]): 83.2%

— patent US6653342B2, “13-substituted milbemycin derivatives, their preparation and their use against insects and other pests” (Sankyo Company, Limited, priority 2000, dated 2003)
